Activity calls are given as the source filed them. No stated cut-off is given here; in the data, actives have a measured IC50 and inactives only a lower limit.

For the assay, the target named is Envelope glycoprotein gp160 (Human immunodeficiency virus 1, UniProt Q6QLK5). The experiment in a line: cell-free HIV fusion peptide-binding blockers – biochemical, uHTS, fluorescence dequenching, […] (AID 1986).
Sequence of Envelope glycoprotein gp160 (Q6QLK5 whole entry, the tested form may be a part): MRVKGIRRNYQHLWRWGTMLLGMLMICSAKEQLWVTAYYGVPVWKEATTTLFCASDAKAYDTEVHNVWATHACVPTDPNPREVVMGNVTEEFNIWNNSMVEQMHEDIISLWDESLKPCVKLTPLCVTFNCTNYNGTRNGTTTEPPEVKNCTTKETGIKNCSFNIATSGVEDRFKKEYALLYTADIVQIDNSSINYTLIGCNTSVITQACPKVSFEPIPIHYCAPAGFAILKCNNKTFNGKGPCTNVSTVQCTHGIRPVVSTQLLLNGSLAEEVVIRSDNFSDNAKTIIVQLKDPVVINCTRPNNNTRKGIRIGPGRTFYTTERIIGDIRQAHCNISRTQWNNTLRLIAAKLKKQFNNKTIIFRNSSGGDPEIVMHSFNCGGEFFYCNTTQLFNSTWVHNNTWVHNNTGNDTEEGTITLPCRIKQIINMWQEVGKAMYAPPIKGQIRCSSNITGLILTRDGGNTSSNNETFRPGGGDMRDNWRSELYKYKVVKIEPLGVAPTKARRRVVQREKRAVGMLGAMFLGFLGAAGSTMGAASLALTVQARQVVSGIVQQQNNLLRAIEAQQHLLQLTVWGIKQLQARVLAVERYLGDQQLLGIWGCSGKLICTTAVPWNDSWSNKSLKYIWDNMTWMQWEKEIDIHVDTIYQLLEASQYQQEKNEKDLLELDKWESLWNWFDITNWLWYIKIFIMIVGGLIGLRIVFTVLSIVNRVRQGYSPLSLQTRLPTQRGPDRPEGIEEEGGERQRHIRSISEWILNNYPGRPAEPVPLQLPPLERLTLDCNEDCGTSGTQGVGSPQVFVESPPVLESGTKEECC
Regarding `N#Cc1c(O)nc(SCC(=O)N2c3ccccc3Sc3ccccc32)nc1-c1ccccc1`, the 50% inhibitory concentration (IC50) (in general, the point on the concentration scale where inhibition reaches its midpoint) is 13.1 µM (active). The result for `COc1ccc(OC)c(N2C(=O)/C(=C/c3ccco3)C(=O)NC2=S)c1` reads 12.6 µM (active). The result for `O=C1NN(c2ccc(Cl)cc2)C(=O)/C1=C\c1ccc(-c2cccc(C(=O)O)c2)o1` reads 11.9 µM (active).

Source of the values: ChEMBL document CHEMBL1201862, “PubChem BioAssay data set” (2004).
